Source: ChEMBL document CHEMBL4739716, “Gpr139 receptor modulators” (2020)

Tests used:
[1] = target: T1, Probable G-protein coupled receptor 139 (Homo sapiens, UniProt Q6DWJ6); test: Agonist activity at human GPR139 expressed in CHO-K1 cells assessed as increase in calcium flux by calcium 5 dye based FLIPR assay; assay type: functional, cell-based
T1 sequence (Q6DWJ6 whole entry): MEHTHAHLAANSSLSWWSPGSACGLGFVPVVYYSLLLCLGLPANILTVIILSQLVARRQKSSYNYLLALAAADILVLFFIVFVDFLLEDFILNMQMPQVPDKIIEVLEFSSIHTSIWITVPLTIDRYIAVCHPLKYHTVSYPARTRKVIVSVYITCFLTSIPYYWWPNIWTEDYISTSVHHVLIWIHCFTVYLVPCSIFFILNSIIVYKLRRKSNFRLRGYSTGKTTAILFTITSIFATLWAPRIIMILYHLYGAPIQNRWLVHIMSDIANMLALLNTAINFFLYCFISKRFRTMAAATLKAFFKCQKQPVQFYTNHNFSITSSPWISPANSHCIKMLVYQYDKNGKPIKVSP

[2] = target: T2, Probable G-protein coupled receptor 139 (Homo sapiens) (UniProt Q6DWJ6); test: Agonist activity at human GPR139 expressed in CHO-K1 cells assessed as increase in calcium flux by calcium 5 dye based FLIPR assay relative to JNJ63533054; assay type: functional, cell-based; settings: filed as agonist
T2 sequence (whole entry): T1 sequence (Q6DWJ6 whole entry)

[3] = target: T3, Probable G-protein coupled receptor 139 (Rattus norvegicus) (UniProt P0C0W8); test: Agonist activity at rat GPR139 expressed in CHO-K1 cells assessed as increase in calcium flux by calcium 5 dye based FLIPR assay relative to JNJ63533054; assay type: cell-based
T3 sequence (whole entry): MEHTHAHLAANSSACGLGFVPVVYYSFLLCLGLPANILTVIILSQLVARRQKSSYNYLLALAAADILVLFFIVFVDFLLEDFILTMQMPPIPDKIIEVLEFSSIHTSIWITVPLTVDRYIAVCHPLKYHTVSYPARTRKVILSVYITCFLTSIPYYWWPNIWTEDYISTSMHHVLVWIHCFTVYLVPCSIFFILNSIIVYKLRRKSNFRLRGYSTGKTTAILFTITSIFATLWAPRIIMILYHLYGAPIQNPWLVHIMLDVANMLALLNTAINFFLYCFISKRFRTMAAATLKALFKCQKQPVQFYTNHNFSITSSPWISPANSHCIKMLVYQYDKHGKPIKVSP

[4] = target: T4, Probable G-protein coupled receptor 139 (Rattus norvegicus, UniProt P0C0W8); test: Agonist activity at rat GPR139 expressed in CHO-K1 cells assessed as increase in calcium flux by calcium 5 dye based FLIPR assay; assay type: cell-based
T4 sequence (P0C0W8 whole entry): T3 sequence (whole entry)

| Compound | EC50 ([1]; cho-k1) [nM] | Emax [2] [%] | Emax [3] [%] | EC50 [4] [nM] | EC50 [1] [nM] | Emax ([3]; filed as agonist) [%] | EC50 ([4]; cho-k1) [nM] |
| --- | --- | --- | --- | --- | --- | --- | --- |
| C[C@H](NC(=O)Cn1nc2c(I)ccnn2c1=O)c1ccc(Cl)c(F)c1 | – | > 80 | – | – | < 1 | > 80 | 1 |
| C[C@H](NC(=O)Cn1nc2ccccn2c1=O)c1cncc(F)c1 | – | 50 | – | – | ≥ 100 | – | – |
| C[C@H](NC(=O)Cn1nc2ncccn2c1=O)c1ccc(Cl)cc1 | 10 | > 80 | 25 | ≥ 100 | – | – | – |
| Cc1ccc([C@H](C)NC(=O)C(C)n2nc3ccccn3c2=O)cc1 (stereo in doubt; form 1) [listing 1 of 2 here] | – | > 80 | – | – | – | 50 | – |
| C[C@@H](NC(=O)Cn1nc2ccccn2c1=O)c1ccc(OC(F)F)cc1 | – | 50 | – | – | ≥ 100 | – | – |
| O=C(Cn1nc2ccccn2c1=O)NC(c1ccc(Cl)cc1)C1CC1 (configuration not stated) | 10 | > 80 | – | – | – | – | – |
| C[C@H](NC(=O)Cn1nc2cccc(N3CCOCC3)n2c1=O)c1ccc(Cl)c(F)c1 | – | > 80 | – | – | < 1 | > 80 | 1 |
| CNc1nccn2c(=O)n(CC(=O)N[C@@H](C)c3ccc(Cl)c(F)c3)nc12 | – | > 80 | – | < 1 | < 1 | > 80 | – |
| C[C@H](NC(=O)Cn1nc2ccccn2c1=O)c1ccc(OC(F)F)c(F)c1 | 1 | > 80 | – | – | – | 50 | 1 |
| C[C@H](NC(=O)Cn1nc2cccnn2c1=O)c1ccc(C2CC2)cc1 | 10 | 50 | – | – | – | 50 | 10 |
| CC(C)Oc1ccc([C@H](C)NC(=O)Cn2nc3ccccn3c2=O)cc1 | 10 | 50 | 25 | ≥ 100 | – | – | – |
| C[C@H](NC(=O)Cn1nc2ncccn2c1=O)c1ccc(OC(F)(F)F)cc1 | 10 | > 80 | < 25 | ≥ 100 | – | – | – |
| C[C@H](NC(=O)Cn1nc2cccc(N3CC(F)(F)C3)n2c1=O)c1ccc(Cl)c(F)c1 | – | > 80 | – | < 1 | < 1 | 50 | – |
| C[C@H](NC(=O)Cn1nc2cnccn2c1=O)c1ccc(Cl)c(F)c1 | 1 | > 80 | – | – | – | > 80 | 1 |
| Cc1nccn2c(=O)n(CC(=O)N[C@@H](C)c3ccc(OC(F)(F)F)cc3)nc12 | – | > 80 | – | – | < 1 | > 80 | 1 |
| Cc1cnc2nn(CC(=O)N[C@@H](C)c3ccc(Cl)c(F)c3)c(=O)n2c1 | 1 | > 80 | – | – | – | > 80 | 1 |
| C[C@H](NC(=O)Cn1nc2cc(I)ccn2c1=O)c1ccc(Cl)c(F)c1 | – | > 80 | – | < 1 | < 1 | > 80 | – |
| C[C@H](NC(=O)Cn1nc2ncc(F)cn2c1=O)c1ccc(Cl)c(F)c1 | 1 | > 80 | – | – | – | > 80 | 1 |
| C[C@H](NC(=O)Cn1nc2ncc(F)cn2c1=O)c1ccc(Cl)cc1 | 1 | > 80 | 25 | ≥ 100 | – | – | – |
| C[C@H](NC(=O)Cn1nc2c(N3CCNCC3)nccn2c1=O)c1ccc(Cl)c(F)c1 | 1 | > 80 | – | – | – | 50 | 10 |
| C[C@H](NC(=O)Cn1nc2ncccn2c1=O)c1ccc(OC(F)F)c(F)c1 | 10 | > 80 | 25 | ≥ 100 | – | – | – |
| C[C@H](NC(=O)Cn1nc2cccc(N3CCNCC3)n2c1=O)c1ccc(OC(F)(F)F)cc1 | 10 | > 80 | 25 | ≥ 100 | – | – | – |
| Cc1ccnc2nn(CC(=O)N[C@@H](C)c3ccc(OC(F)(F)F)cc3)c(=O)n12 | 1 | 50 | < 25 | ≥ 100 | – | – | – |
| C[C@H](NC(=O)Cn1nc2c(NC3COC3)nccn2c1=O)c1ccc(Cl)c(F)c1 | 1 | > 80 | – | – | – | 50 | 1 |
| C[C@H](NC(=O)Cn1nc2c(N3CCN(C)CC3)nccn2c1=O)c1ccc(Cl)c(F)c1 | 1 | 50 | – | – | – | > 80 | 1 |
| Cc1ccc([C@H](C)NC(=O)C(C)n2nc3ccccn3c2=O)cc1 (stereo in doubt; form 1) [listing 2 of 2 here] | 1 | – | – | – | – | – | 1 |
| CC(NC(=O)Cn1nc2ccccn2c1=O)c1ccc(OC(F)F)cc1 (stereo in doubt) | 10 | > 80 | – | – | – | – | – |

Continued, values first:

| EC50 ([1]; cho-k1) [nM] | Emax [2] [%] | Emax [3] [%] | EC50 [4] [nM] | EC50 [1] [nM] | Emax ([3]; filed as agonist) [%] | EC50 ([4]; cho-k1) [nM] | Compound |
| --- | --- | --- | --- | --- | --- | --- | --- |
| 1 | > 80 | 25 | ≥ 100 | – | – | – | Cc1cn2c(=O)n(CC(=O)N[C@@H](C)c3ccc(OC(F)(F)F)cc3)nc2cn1 |
| – | > 80 | < 25 | ≥ 100 | < 1 | – | – | Cc1cc2nn(CC(=O)N[C@@H](C)c3ccc(Cl)cc3)c(=O)n2c(C)n1 |
| 1 | > 80 | – | < 1 | – | 50 | – | Cc1ccc([C@H](C)NC(=O)Cn2nc3ccc(Br)cn3c2=O)cc1 |
| 1 | > 80 | – | – | – | 50 | 1 | COc1ccn2c(=O)n(CC(=O)N[C@@H](C)c3ccc(Cl)cc3)nc2n1 |
| 1 | > 80 | – | < 1 | – | 50 | – | Cc1ccc([C@H](C)NC(=O)Cn2nc3c(Cl)cccn3c2=O)cc1 |
| 1 | > 80 | – | – | – | – | – | Cc1ccc([C@H](C)NC(=O)Cn2nc3cccc(Br)n3c2=O)cc1 |
| – | > 80 | – | < 1 | < 1 | > 80 | – | C[C@H](NC(=O)Cn1nc2ccc(Cl)nn2c1=O)c1ccc(Cl)c(F)c1 |
| – | > 80 | – | < 1 | < 1 | 50 | – | C[C@H](NC(=O)Cn1nc2ccccn2c1=O)c1ccc(Cl)cc1 |
| – | > 80 | – | – | < 1 | 50 | 1 | Cc1cc(C)n2c(=O)n(CC(=O)N[C@@H](C)c3ccc(Cl)c(F)c3)nc2n1 |
| 1 | 50 | < 25 | ≥ 100 | – | – | – | Cc1ccn2c(=O)n(CC(=O)N[C@@H](C)c3ccc(OC(F)(F)F)cc3)nc2n1 |
| 1 | 50 | – | – | – | – | – | Cc1ccc([C@H](C)NC(=O)Cn2nc3c(NC(=O)OC(C)(C)C)cccn3c2=O)cc1 |
| 1 | > 80 | – | – | – | – | – | Cc1ccc([C@H](C)NC(=O)Cn2nc3ccncn3c2=O)cc1 |
| – | 50 | – | – | ≥ 100 | – | – | Cc1ccc([C@@H](C)NC(=O)Cn2nc3ccccn3c2=O)cc1 |
| 1 | > 80 | – | – | – | – | – | Cc1ccc([C@H](C)NC(=O)Cn2nc3cc(C)nc(C)n3c2=O)cc1 |
